System: 857933-349-R-J2-PDC complex spheroids, viability
Test: Anticancer human tumor 857933-349-R-J2-PDC patient-derived colon adenocarcinoma cell line growth inhibition [GQUAD]
Settings: for IC50: curve of first compound; for viability, T/C: stronger effect = lower value
How it was run: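 Multi-cell-type spheroids of tumor cells with HUVEC and mesenchymal stem cells, treated with drug combinations. Concentrations descend in half-log steps from near clinical Cmax, or from 10 microM where Cmax is unknown; viability read-out.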

[1] = second compound 0.0316 µM, first compound 0.0316 µM
[2] = second compound 0.0316 µM, first compound 0.1 µM
[3] = second compound 0.0316 µM, first compound 0.316 µM
[4] = second compound 0.0316 µM, first compound 1 µM
[5] = second compound 0.0316 µM, first compound 3.16 µM
[6] = second compound 0.0316 µM, first compound 10 µM
[7] = second compound 0.1 µM, first compound 0.0316 µM
[8] = second compound 0.1 µM, first compound 0.1 µM
[9] = second compound 0.1 µM, first compound 0.316 µM
[10] = second compound 0.1 µM, first compound 1 µM
[11] = second compound 0.1 µM, first compound 3.16 µM
[12] = second compound 0.1 µM, first compound 10 µM
[13] = second compound 0.316 µM, first compound 0.0316 µM
[14] = second compound 0.316 µM, first compound 0.1 µM
[15] = second compound 0.316 µM, first compound 0.316 µM
[16] = second compound 0.316 µM, first compound 1 µM
[17] = second compound 0.316 µM, first compound 3.16 µM
[18] = second compound 0.316 µM, first compound 10 µM
[19] = second compound 1 µM, first compound 0.0316 µM
[20] = second compound 1 µM, first compound 0.1 µM
[21] = second compound 1 µM, first compound 0.316 µM
[22] = second compound 1 µM, first compound 1 µM
[23] = second compound 1 µM, first compound 3.16 µM
[24] = second compound 1 µM, first compound 10 µM
[25] = second compound 3.16 µM, first compound 0.0316 µM
[26] = second compound 3.16 µM, first compound 0.1 µM
[27] = second compound 3.16 µM, first compound 0.316 µM
[28] = second compound 3.16 µM, first compound 1 µM
[29] = second compound 3.16 µM, first compound 3.16 µM
[30] = second compound 3.16 µM, first compound 10 µM
[31] = second compound 10 µM, first compound 0.0316 µM
[32] = second compound 10 µM, first compound 0.1 µM
[33] = second compound 10 µM, first compound 0.316 µM
[34] = second compound 10 µM, first compound 1 µM
[35] = second compound 10 µM, first compound 3.16 µM
[36] = second compound 10 µM, first compound 10 µM
[37] = second compound 0.0316 µM, first compound 0.000999 µM
[38] = second compound 0.0316 µM, first compound 0.00316 µM
[39] = second compound 0.0316 µM, first compound 0.00999 µM
[40] = second compound 0.0316 µM, first compound 0.0999 µM
[41] = second compound 0.1 µM, first compound 0.000999 µM
[42] = second compound 0.1 µM, first compound 0.00316 µM
[43] = second compound 0.1 µM, first compound 0.00999 µM
[44] = second compound 0.1 µM, first compound 0.0999 µM
[45] = second compound 0.316 µM, first compound 0.000999 µM
[46] = second compound 0.316 µM, first compound 0.00316 µM
[47] = second compound 0.316 µM, first compound 0.00999 µM
[48] = second compound 0.316 µM, first compound 0.0999 µM
[49] = second compound 1 µM, first compound 0.000999 µM
[50] = second compound 1 µM, first compound 0.00316 µM
[51] = second compound 1 µM, first compound 0.00999 µM
[52] = second compound 1 µM, first compound 0.0999 µM
[53] = second compound 3.16 µM, first compound 0.000999 µM
[54] = second compound 3.16 µM, first compound 0.00316 µM
[55] = second compound 3.16 µM, first compound 0.00999 µM
[56] = second compound 3.16 µM, first compound 0.0999 µM
[57] = second compound 10 µM, first compound 0.000999 µM
[58] = second compound 10 µM, first compound 0.00316 µM
[59] = second compound 10 µM, first compound 0.00999 µM
[60] = second compound 10 µM, first compound 0.0999 µM
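Also: spheroids exposed to compounds for one week before readout.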
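For viability, T/C in this document: percent viability relative to vehicle DMSO wells taken as 100%.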

With `C=CC(=O)N1CCN(c2nc(=O)n(-c3c(C)ccnc3C(C)C)c3nc(-c4c(O)cccc4F)c(F)cc23)C(C)C1` (stereo not drawn) + CN(C)c1ccc(Nc2c3ccc(NC(=O)CCN4CCCC4)cc3nc3cc(NC(=O)CCN4CCCC4)ccc23)cc1 the IC50 (second compound 0.0316 µM) was > 10000 nM, the IC50 (second compound 0.1 µM) was > 10000 nM and the IC50 (second compound 0.316 µM) was > 10000 nM. For the same molecule, the IC50 (second compound 1 µM) was > 10000 nM, the IC50 (second compound 3.16 µM) was > 10000 nM and the IC50 (second compound 10 µM) was > 10000 nM. For the same molecule, the viability, T/C [1] was 114%, the viability, T/C [2] was 91.7% and the viability, T/C [3] was 108%. For the same molecule, the viability, T/C [4] was 97.3%, the viability, T/C [5] was 114% and the viability, T/C [6] was 112%. The viability, T/C [7] was 104%, the viability, T/C [8] was 102% and the viability, T/C [9] was 102%. The viability, T/C [10] was 102%, the viability, T/C [11] was 108% and the viability, T/C [12] was 113%. The viability, T/C [13] was 105%, the viability, T/C [14] was 99.5% and the viability, T/C [15] was 99%. The viability, T/C [16] was 99.8%, the viability, T/C [17] was 112% and the viability, T/C [18] was 107%. For the same molecule, the viability, T/C [19] was 97.2%, the viability, T/C [20] was 90.8% and the viability, T/C [21] was 102%. For the same molecule, the viability, T/C [22] was 99.6%, the viability, T/C [23] was 113% and the viability, T/C [24] was 98.3%. The viability, T/C [25] was 90.2%, the viability, T/C [26] was 79.5% and the viability, T/C [27] was 91.4%. The viability, T/C [28] was 89.9%, the viability, T/C [29] was 100% and the viability, T/C [30] was 88%. For the same molecule, the viability, T/C [31] was 73%, the viability, T/C [32] was 77.9% and the viability, T/C [33] was 70.8%. For the same molecule, the viability, T/C [34] was 77.5%, the viability, T/C [35] was 82.3% and the viability, T/C [36] was 79.3%.
Molecule `CCc1c2c(nc3ccc(O)cc13)-c1cc3c(c(=O)n1C2)COC(=O)[C@]3(O)CC` + CN(C)c1ccc(Nc2c3ccc(NC(=O)CCN4CCCC4)cc3nc3cc(NC(=O)CCN4CCCC4)ccc23)cc1 has an IC50 (second compound 0.0316 µM) of 16.1 nM, an IC50 (second compound 0.1 µM) of 15.6 nM and an IC50 (second compound 0.316 µM) of 15.3 nM. The IC50 (second compound 1 µM) was 13.2 nM, the IC50 (second compound 3.16 µM) was 14.5 nM and the IC50 (second compound 10 µM) was 24 nM. For the same molecule, the viability, T/C [37] was 95.6%, the viability, T/C [38] was 78.4% and the viability, T/C [39] was 55.4%. It also gave a viability, T/C [1] of 40.4%, a viability, T/C [40] of 21.6% and a viability, T/C [3] of 5.95%. It also gave a viability, T/C [41] of 94.2%, a viability, T/C [42] of 81.8% and a viability, T/C [43] of 59.9%. It also gave a viability, T/C [7] of 33.8%, a viability, T/C [44] of 18.5% and a viability, T/C [9] of 7.59%. The viability, T/C [45] was 98%, the viability, T/C [46] was 82.3% and the viability, T/C [47] was 57.6%. It also gave a viability, T/C [13] of 34%, a viability, T/C [48] of 21.5% and a viability, T/C [15] of 5.15%. The viability, T/C [49] was 93.5%, the viability, T/C [50] was 77% and the viability, T/C [51] was 55.9%. For the same molecule, the viability, T/C [19] was 31.4%, the viability, T/C [52] was 20.2% and the viability, T/C [21] was 5.78%. For the same molecule, the viability, T/C [53] was 89.9%, the viability, T/C [54] was 77.6% and the viability, T/C [55] was 58.3%. The viability, T/C [25] was 31.9%, the viability, T/C [56] was 21.7% and the viability, T/C [27] was 7.69%. It also gave a viability, T/C [57] of 70.4%, a viability, T/C [58] of 67.4% and a viability, T/C [59] of 59%. For the same molecule, the viability, T/C [31] was 48.2%, the viability, T/C [60] was 27.8% and the viability, T/C [33] was 14.2%.
For `Cc1cccc(N(C)C(=O)C2C(O)CCN2c2nc(C)cc(C(F)(F)F)c2C#N)c1` (stereo not drawn) + CN(C)c1ccc(Nc2c3ccc(NC(=O)CCN4CCCC4)cc3nc3cc(NC(=O)CCN4CCCC4)ccc23)cc1, the IC50 (second compound 0.0316 µM) was > 10000 nM, the IC50 (second compound 0.1 µM) was > 10000 nM and the IC50 (second compound 0.316 µM) was > 10000 nM. The IC50 (second compound 1 µM) was > 10000 nM, the IC50 (second compound 3.16 µM) was > 10000 nM and the IC50 (second compound 10 µM) was > 10000 nM. For the same molecule, the viability, T/C [1] was 106%, the viability, T/C [2] was 106% and the viability, T/C [3] was 101%. It also gave a viability, T/C [4] of 105%, a viability, T/C [5] of 103% and a viability, T/C [6] of 99.3%. It also gave a viability, T/C [7] of 101%, a viability, T/C [8] of 107% and a viability, T/C [9] of 100%. The viability, T/C [10] was 102%, the viability, T/C [11] was 103% and the viability, T/C [12] was 99.2%. For the same molecule, the viability, T/C [13] was 104%, the viability, T/C [14] was 103% and the viability, T/C [15] was 98.5%. The viability, T/C [16] was 102%, the viability, T/C [17] was 108% and the viability, T/C [18] was 98%. It also gave a viability, T/C [19] of 104%, a viability, T/C [20] of 90.3% and a viability, T/C [21] of 94.3%. For the same molecule, the viability, T/C [22] was 93.5%, the viability, T/C [23] was 96.7% and the viability, T/C [24] was 88.2%. The viability, T/C [25] was 89.9%, the viability, T/C [26] was 78.1% and the viability, T/C [27] was 83.8%. The viability, T/C [28] was 78.6%, the viability, T/C [29] was 87% and the viability, T/C [30] was 74.2%. The viability, T/C [31] was 68.8%, the viability, T/C [32] was 71.7% and the viability, T/C [33] was 76.5%. It also gave a viability, T/C [34] of 74.7%, a viability, T/C [35] of 69.8% and a viability, T/C [36] of 63.5%.
With `Cn1ncnc1[C@H]1c2n[nH]c(=O)c3cc(F)cc(c23)N[C@@H]1c1ccc(F)cc1` + CN(C)c1ccc(Nc2c3ccc(NC(=O)CCN4CCCC4)cc3nc3cc(NC(=O)CCN4CCCC4)ccc23)cc1 the IC50 (second compound 0.0316 µM) was > 316 nM, the IC50 (second compound 0.1 µM) was > 316 nM and the IC50 (second compound 0.316 µM) was > 316 nM. For the same molecule, the IC50 (second compound 1 µM) was > 316 nM, the IC50 (second compound 3.16 µM) was > 316 nM and the IC50 (second compound 10 µM) was > 316 nM. For the same molecule, the viability, T/C [37] was 108%, the viability, T/C [38] was 97.2% and the viability, T/C [39] was 99.4%. The viability, T/C [1] was 106%, the viability, T/C [40] was 109% and the viability, T/C [3] was 102%. It also gave a viability, T/C [41] of 102%, a viability, T/C [42] of 99.9% and a viability, T/C [43] of 98.6%. For the same molecule, the viability, T/C [7] was 105%, the viability, T/C [44] was 104% and the viability, T/C [9] was 101%. It also gave a viability, T/C [45] of 106%, a viability, T/C [46] of 100% and a viability, T/C [47] of 98.8%. The viability, T/C [13] was 97.7%, the viability, T/C [48] was 105% and the viability, T/C [15] was 99.7%. For the same molecule, the viability, T/C [49] was 102%, the viability, T/C [50] was 92% and the viability, T/C [51] was 96.4%. The viability, T/C [19] was 96%, the viability, T/C [52] was 101% and the viability, T/C [21] was 94.6%. The viability, T/C [53] was 90.1%, the viability, T/C [54] was 81.3% and the viability, T/C [55] was 84.3%. It also gave a viability, T/C [25] of 85.8%, a viability, T/C [56] of 90% and a viability, T/C [27] of 86.5%. It also gave a viability, T/C [57] of 71.2%, a viability, T/C [58] of 77% and a viability, T/C [59] of 70.8%. For the same molecule, the viability, T/C [31] was 77.5%, the viability, T/C [60] was 75.4% and the viability, T/C [33] was 71.7%.

Reference: PubChem BioAssay AID2060491 (Molecular Pharmacology Branch, DTP, NCI, 2025)
